Values of other authors in patent US20260110035A1, “DNA REPAIR SIGNATURE AND PREDICTION OF RESPONSE FOLLOWING CANCER THERAPY” (priority 2022, published 2026).

System: stage II/III TNBC
Settings: BrighTNess; only carboplatin (Arm B) vs veliparib+carboplatin (Arm A), with paclitaxel followed by AC

Structure (SMILES): N.N.O=C([O-])C1(C(=O)[O-])CCC1.[Pt+2] [carboplatin]
- difference in pCR rates between Arm B and Arm A: no substantial difference
